Experimental data published in patent publication US11939320B2, “Modulators of the integrated stress pathway” (Calico Life Sciences LLC, priority 2017, dated 2024).

What follows are compounds tested on HEK293T cells carrying the ATF4 luciferase reporter (assay: ATF4-Luc assay (in vitro model of VWMD)). Details: Homo sapiens, HEK-293T; HEK293T cells with ATF4 5'-UTR firefly luciferase reporter; 1 μg/mL tunicamycin; 7 hours; One Glo luminescence.
Format: cell-based
Experimental: In order to test exemplary compounds of the invention in a cellular context, a stable VWMD cell line was first constructed. The ATF4 reporter was prepared by fusing the human full-length ATF4 5′-UTR (NCBI Accession No. BC022088.2) in front of the firefly luciferase (FLuc) coding sequence lacking the initiator methionine as described in Sidrauski et al (eLife 2013). The construct was used to produce recombinant retroviruses using standard methods and the resulting viral supernatant was used to transduce HEK293T cells, which were then subsequently selected with puromycin to generate a stable cell line.
HEK293T cells carrying the ATF4 luciferase reporter were plated on polylysine coated 384-well plates (Greiner Bio-one) at 30,000 cells per well. Cells were treated the next day with 1 μg/mL tunicamycin and 200 nM of a compound of Formula (I) for 7 hours. Luminescence was measured using One Glo (Promega) as specified by the manufacturer. Cells were maintained in DMEM with L-glutamine supplemented with 10% heat-inactivated FBS (Gibco) and Antibiotic-Antimycotic solution (Gibco).
Table 2 below summarizes the EC50 data obtained using the ATF4-Luc assay for exemplary compounds of the invention.

SMILES	EC50
O=C(COc1ccc(Cl)c(F)c1)N[C@H]1CC[C@H](C(=O)N2Cc3ccc(Cl)cc3C2)CC1 [Compound 132, N-[(1r,4r)-4-(5-chloro-1,3-dihydro-2H-isoindole-2-carbonyl)cyclohexyl]-2-(4-chloro-3-fluorophenoxy)acetamide]	0.01 to 0.05 µM
COc1ncc(CNC(=O)[C@@H]2CC[C@@H](NC(=O)COc3ccc(Cl)c(F)c3)CO2)cn1 [Compound 140, (2S,5R)-5-[2-(4-chloro-3-fluorophenoxy)acetamido]-N-[(2-methoxypyrimidin-5-yl)methyl]oxane-2-carboxamide]	> 2 µM
O=C(COc1ccc(Cl)c(Cl)c1)N[C@H]1CC[C@H](C(=O)NCc2ccc(C(F)(F)F)nc2)CC1 [Compound 100, (1r,4r)-4-[2-(3,4-dichlorophenoxy)acetamido]-N-{[6-(trifluoromethyl)pyridin-3-yl]methyl}cyclohexane-1-carboxamide]	0.01 to 0.05 µM
Cc1ccc(CNC(=O)[C@H]2CC[C@H](NC(=O)COc3ccc(Cl)c(Cl)c3)CC2)nc1 [Compound 101, (1r,4r)-4-[2-(3,4-dichlorophenoxy)acetamido]-N-[(5-methylpyridin-2-yl)methyl]cyclohexane-1-carboxamide]	> 2 µM
O=C(COc1ccc(Cl)c(F)c1)N[C@H]1CC[C@H](C(=O)N2CCC(c3ccc(Cl)cc3)CC2)CC1 [Compound 128, 2-(4-chloro-3-fluorophenoxy)-N-{(1r,4r)-4-[4-(4-chlorophenyl)piperidine-1-carbonyl]cyclohexyl}acetamide]	> 2 µM
NC(=O)c1ccc(CNC(=O)[C@H]2CC[C@H](NC(=O)COc3ccc(Cl)c(F)c3)CC2)nc1 [Compound 172, 6-[({(1r,4r)-4-[2-(4-chloro-3-fluorophenoxy)acetamido]cyclohexane-1-carbonyl}amino)methyl]pyridine-3-carboxamide]	> 2 µM
O=C(COc1ccc(Cl)c(F)c1)N[C@H]1CC[C@H](C(=O)N2CCN(c3ccc(Cl)cc3)C(=O)C2)CC1 [Compound 125, 2-(4-chloro-3-fluorophenoxy)-N-{(1r,4r)-4-[4-(4-chlorophenyl)-3-oxopiperazine-1-carbonyl]cyclohexyl}acetamide]	0.25 to 0.5 µM
O=C(COc1ccc(Cl)c(F)c1)N[C@H]1C[C@H](C(=O)N2CC(c3ccc(Cl)cc3)C2)C1 [Compound 123, 2-(4-chloro-3-fluorophenoxy)-N-{(1r,3r)-3-[3-(4-chlorophenyl)azetidine-1-carbonyl]cyclobutyl}acetamide]	0.25 to 0.5 µM
O=C(COc1ccc(Cl)c(F)c1)N[C@@H]1CC[C@@H](C(=O)NCCc2ccc(Cl)cc2)OC1 [Compound 146, (2S,5R)-5-[2-(4-chloro-3-fluorophenoxy)acetamido]-N-[2-(4-chlorophenyl)ethyl]oxane-2-carboxamide]	0.05 to 0.25 µM
O=C(COc1ccc(Cl)c(Cl)c1)N[C@H]1CC[C@H](C(=O)Nc2ccc(OC(F)F)nc2)CC1 [Compound 102, (1r,4r)-4-[2-(3,4-dichlorophenoxy)acetamido]-N-[6-(difluoromethoxy)pyridin-3-yl]cyclohexane-1-carboxamide]	< 0.01 µM
O=C(COc1ccc(Cl)c(F)c1)N[C@H]1C[C@H](C(=O)NCc2ccc(C(F)(F)F)cn2)C1 [Compound 122, (1r,3r)-3-[2-(4-chloro-3-fluorophenoxy)acetamido]-N-{[5-(trifluoromethyl)pyridin-2-yl]methyl}cyclobutane-1-carboxamide]	0.5 to 2 µM
O=C(COc1ccc(Cl)c(Cl)c1)N[C@H]1CC[C@H](C(=O)NCc2ccc(Cl)cn2)CC1 [Compound 175, (1r,4r)-N-[(5-chloropyridin-2-yl)methyl]-4-[2-(3,4-dichlorophenoxy)acetamido]cyclohexane-1-carboxamide]	0.05 to 0.25 µM
O=C(COc1ccc(Cl)c(F)c1)N[C@H]1CC[C@H](C(=O)NCc2ccc(Cl)cn2)CC1 [Compound 176, (1r,4r)-4-[2-(4-chloro-3-fluorophenoxy)acetamido]-N-[(5-chloropyridin-2-yl)methyl]cyclohexane-1-carboxamide]	> 2 µM
N#Cc1ccc(CNC(=O)[C@H]2CC[C@H](NC(=O)COc3ccc(Cl)c(Cl)c3)CC2)nc1 [Compound 173, (1r,4r)-N-[(5-cyanopyridin-2-yl)methyl]-4-[2-(3,4-dichlorophenoxy)acetamido]cyclohexane-1-carboxamide]	0.05 to 0.25 µM
O=C(COc1ccc(Cl)c(F)c1)N[C@H]1CC[C@H](C(=O)Nc2ccc(OC(F)F)nc2)CC1 [Compound 109, (1r,4r)-4-[2-(4-chloro-3-fluorophenoxy)acetamido]-N-[6-(difluoromethoxy)pyridin-3-yl]cyclohexane-1-carboxamide]	< 0.01 µM
O=C(COc1ccc(Cl)c(F)c1)N[C@H]1CC[C@H](C(=O)NCCOc2ccc(Cl)c(F)c2)CC1 [Compound 178, (1r,4r)-4-[2-(4-chloro-3-fluorophenoxy)acetamido]-N-[2-(4-chloro-3-fluorophenoxy)ethyl]cyclohexane-1-carboxamide]	0.01 to 0.05 µM
O=C(COc1ccc(Cl)c(F)c1)N[C@H]1CC[C@H](C(=O)NCc2nc3cc(Cl)ccc3[nH]2)CC1 [Compound 150, (1r,4r)-N-[(5-chloro-1H-benzimidazol-2-yl)methyl]-4-[2-(4-chloro-3-fluorophenoxy)acetamido]cyclohexane-1-carboxamide]	0.01 to 0.05 µM
Cc1cc(CNC(=O)[C@@H]2CC[C@@H](NC(=O)COc3ccc(Cl)c(F)c3)CO2)n(C)n1 [Compound 136, (2S,5R)-5-[2-(4-chloro-3-fluorophenoxy)acetamido]-N-[(1,3-dimethyl-1H-pyrazol-5-yl)methyl]oxane-2-carboxamide]	> 2 µM
O=C(COc1ccc2c(c1)OC(F)(F)O2)N[C@H]1CC[C@H](C(=O)NCc2nc3cc(Cl)ccc3[nH]2)CC1 [Compound 148, (1r,4r)-N-[(5-chloro-1H-benzimidazol-2-yl)methyl]-4-{2-[(2,2-difluoro-2H-1,3-benzodioxol-5-yl)oxy]acetamido}cyclohexane-1-carboxamide]	0.05 to 0.25 µM
O=C(COc1ccc(Cl)c(F)c1)N[C@H]1CC[C@H](C(=O)N2CC(O)(c3ccc(Cl)cc3)C2)CC1 [Compound 130, 2-(4-chloro-3-fluorophenoxy)-N-{(1r,4r)-4-[3-(4-chlorophenyl)-3-hydroxyazetidine-1-carbonyl]cyclohexyl}acetamide]	0.05 to 0.25 µM
O=C(COc1ccc(Cl)c(Cl)c1)N[C@H]1CC[C@H](C(=O)Nc2ccc(OCC(F)(F)F)nc2)CC1 [Compound 103, (1r,4r)-4-[2-(3,4-dichlorophenoxy)acetamido]-N-[6-(2,2,2-trifluoroethoxy)pyridin-3-yl]cyclohexane-1-carboxamide]	> 2 µM
CN(Cc1cccnc1)C(=O)[C@H]1CC[C@H](NC(=O)COc2ccc(Cl)c(Cl)c2)CC1 [Compound 106, (1r,4r)-4-[2-(3,4-dichlorophenoxy)acetamido]-N-methyl-N-[(pyridin-3-yl)methyl]cyclohexane-1-carboxamide]	> 2 µM
O=C(COc1ccc(Cl)c(F)c1)N[C@H]1CC[C@H](C(=O)NCc2ccc(C(F)(F)F)cn2)CC1 [Compound 119, (1r,4r)-4-[2-(4-chloro-3-fluorophenoxy)acetamido]-N-{[5-(trifluoromethyl)pyridin-2-yl]methyl}cyclohexane-1-carboxamide]	< 0.01 µM
